Where two headings read alike, the source gives them in different places. Marks after values point to notes of the source that are not given here.
What was measured:
Assay type in all cases: biochemical
[1] = target: T1, GST-DYRK1A-ΔC (amino acids 1–499 of rat DYRK1A) (Rattus norvegicus, UniProt Q63470); experiment: Kinase-GLO luminescent assay of DYRK1A catalytic activity; settings: for remaining activity at 1 µM: read-out: DYRK1A residual activity
T1 construct: containing amino acids 1–499 of rat DYRK1A; made in house; host or cells: E. coli
Protocol: (§1) Optimization of the compounds, however, aimed predominantly at elimination of MAO-A-inhibitory activity while keeping DYRK1A inhibitory potency, and not at achieving high selectivity for DYRK1A over CLK1. The tests were performed as described by us before in detail. Due to the very large number of test compounds (more than 60), a first screening was performed at a single inhibitor concentration of 1 µM.
(§2) Inhibitors were dissolved in DMSO at a concentration of 10 mM and stored at […]. Working solutions were prepared to achieve a final concentration of 1 µM in the enzyme assays.
(§3) Recombinant kinases were purified from E. coli as GST (glutathione S-transferase) fusion constructs by affinity adsorption to glutathione-Sepharose. […] Catalytic activity of the kinases was measured with the help of the Kinase-GLO^TM Luminescent Assay from Promega. Assays were performed in a total volume of 10 μL in kinase buffer (25 mM Hepes pH 7.4, 0.5 mM DTT, 5 mM MgCl2, 5 μM ATP) with appropriate peptide substrates (20 μM DYRKtide for the DYRKs and 100 μM DYRKtide for HIPK2, […]; or 100 μM RS peptide for CLK1, […]). Kinases amounts in the assays were adjusted so that approximately 90% of the ATP in the assay was consumed in control samples without inhibitor. Kinase reactions were incubated at room temperature for 30 min before 10 μL Kinase-GLO reagent was added for luminometric measurement of the ATP that was not consumed by the kinases. After incubation at room temperature for an additional 10 min, luminescence was recorded for 1 s (Berthold Orion Microplate Luminometer). ATP consumption in the control samples without inhibitor was set as 100% catalytic activity, and the inhibitory effects of the test compounds were calculated relative to this value.

[2] = target: T2, GST-CLK1cat (amino acids 141–484 of human CLK1) (Homo sapiens, UniProt P49759); experiment: Kinase-GLO luminescent assay of CLK1 catalytic activity; settings: for remaining activity at 1 µM: read-out: CLK1 residual activity
T2 construct: containing amino acids 141–484 of human CLK1; made in house; host or cells: E. coli
Protocol: as §1, §2, §3

[3] = target: T3, human recombinant MAO-A (Homo sapiens, UniProt P21397); experiment: MAO-GLO luminescence assay of MAO-A catalytic activity; settings: for remaining activity at 1 µM: read-out: MAO-A residual activity
T3 sequence (P21397 1-527): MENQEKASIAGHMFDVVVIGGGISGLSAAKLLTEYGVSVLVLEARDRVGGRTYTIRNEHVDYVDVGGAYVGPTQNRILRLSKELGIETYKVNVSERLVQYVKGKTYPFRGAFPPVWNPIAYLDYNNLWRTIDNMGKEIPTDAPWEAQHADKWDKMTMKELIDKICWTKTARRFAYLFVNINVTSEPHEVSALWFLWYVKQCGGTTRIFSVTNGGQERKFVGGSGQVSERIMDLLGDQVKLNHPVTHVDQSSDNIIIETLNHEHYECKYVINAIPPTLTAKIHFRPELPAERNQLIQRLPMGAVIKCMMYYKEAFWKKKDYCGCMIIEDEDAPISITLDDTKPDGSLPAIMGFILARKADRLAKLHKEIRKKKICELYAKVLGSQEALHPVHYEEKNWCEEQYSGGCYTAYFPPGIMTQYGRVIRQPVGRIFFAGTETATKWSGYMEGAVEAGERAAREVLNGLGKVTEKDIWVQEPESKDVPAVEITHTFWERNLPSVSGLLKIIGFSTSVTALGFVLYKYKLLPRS
Protocol: as §1, §2
Catalytic activity of monoamine oxidase A (MAO-A) was measured by using the luminescence-based MAO-GLO^TM Assay from Promega. Recombinant MAO-A converts a luminogenic MAO substrate into luciferin, which is, in turn, luminometrically detected in a luciferase reaction. The amount of light produced is directly proportional to MAO activity. […] Inhibitory effects of the tested compounds were calculated relative to the activity of control reactions that were run in the absence of inhibitors.

[4] = 1 µM inhibitor concentration, residual activity relative to control without inhibitor

T2 sequence (P49759 141-484): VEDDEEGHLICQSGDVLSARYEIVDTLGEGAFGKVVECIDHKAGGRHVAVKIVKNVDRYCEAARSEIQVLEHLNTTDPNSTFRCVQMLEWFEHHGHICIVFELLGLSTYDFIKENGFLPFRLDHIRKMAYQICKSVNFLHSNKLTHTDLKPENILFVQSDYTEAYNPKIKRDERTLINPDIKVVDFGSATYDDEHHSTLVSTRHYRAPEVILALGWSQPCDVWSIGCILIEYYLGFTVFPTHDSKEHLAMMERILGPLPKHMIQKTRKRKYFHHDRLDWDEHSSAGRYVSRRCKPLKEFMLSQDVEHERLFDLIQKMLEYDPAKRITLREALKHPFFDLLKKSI

7-Methoxy-1-methyl-9-(prop-2-yn-1-yl)-9H-pyrido[3,4-b]indole [AnnH70]
DYRK1A residual activity [1, 4]: 6%
CLK1 residual activity [2, 4]: 17 *** %
MAO-A residual activity [3, 4]: 18%

COc1ccc2c(c1)C(O)c1c-2ccnc1C (racemic) [AnnHT3, (±)-7-Methoxy-1-methyl-9H-indeno-[2,1-c]pyridin-9-ol]
remaining activity at 1 µM [1, 4]: 59%
remaining activity at 1 µM [2, 4]: 76%
remaining activity at 1 µM [3, 4]: 34%

COc1ccc2c3ccnc(C)c3n(C)c2c1 [AnnH1]
remaining activity at 1 µM [2, 4]: 6%
remaining activity at 1 µM [3, 4]: 2%

CCCCn1c2cc(OC)ccc2c2ccnc(C)c21 [AnnH3, 9-Butyl-7-methoxy-1-methyl-9H-pyrido[3,4-b]indole]
remaining activity at 1 µM [2, 4]: 24%
remaining activity at 1 µM [3, 4]: 10%

COc1ccc2c3ccnc(C)c3n(Cc3ccccc3)c2c1 [AnnH4, 9-Benzyl-7-methoxy-1-methyl-9H-pyrido[3,4-b]indole]
remaining activity at 1 µM [1, 4]: 88%
remaining activity at 1 µM [3, 4]: 80%

COc1c(Br)cc2c([nH]c3c(C)nccc32)c1Br [AnnH5_1]
remaining activity at 1 µM [1, 4]: 101%
remaining activity at 1 µM [3, 4]: 70%

COc1cc2[nH]c3c(C)nccc3c2cc1Br [AnnH5_2]
remaining activity at 1 µM [1, 4]: 88%
remaining activity at 1 µM [3, 4]: 7%

COc1ccc2c([nH]c3c(C)nccc32)c1Br [AnnH5_3, 8-bromo-7-methoxy-1-methyl-9H-pyrido[3,4-b]indole]
remaining activity at 1 µM [1, 4]: 95%
remaining activity at 1 µM [3, 4]: 8%

COc1c(Br)cc2c([nH]c3c(C)nc(Br)cc32)c1Br [AnnH5_4, 3,6,8-tribromoharmine]
remaining activity at 1 µM [1, 4]: 126%

COc1ccc2c([nH]c3c(C)nccc32)c1Cl [AnnH6_1, 8-chloro-7-methoxy-1-methyl-9H-pyrido[3,4-b]indole]
remaining activity at 1 µM [1, 4]: 97%
remaining activity at 1 µM [3, 4]: 16%

COc1c(Cl)cc2c([nH]c3c(C)nccc32)c1Cl [AnnH6_3_1]
remaining activity at 1 µM [1, 4]: 99%
remaining activity at 1 µM [3, 4]: 64%

COc1cc2[nH]c3c(C)nccc3c2cc1Cl [AnnH6_3_2, 6-chloro-7-methoxy-1-methyl-9H-pyrido[3,4-b]indole]
remaining activity at 1 µM [1, 4]: 92%
remaining activity at 1 µM [3, 4]: 9%

CCCCn1c2c(C)nccc2c2ccc(OC)c(Br)c21 [AnnH9, 8-Bromo-9-butyl-7-methoxy-1-methyl-9H-pyrido[3,4-b]indole]
remaining activity at 1 µM [1, 4]: 96%
remaining activity at 1 µM [3, 4]: 8%

CCCCn1c2c(C)nccc2c2ccc(OC)c(Cl)c21 [AnnH11, 9-Butyl-8-chloro-7-methoxy-1-methyl-9H-pyrido[3,4-b]indole]
remaining activity at 1 µM [1, 4]: 104%
remaining activity at 1 µM [2, 4]: 60%
remaining activity at 1 µM [3, 4]: 4%

CCOC(=O)Cn1c2cc(OC)ccc2c2ccnc(C)c21 [AnnH12, Ethyl 2-(7-methoxy-1-methyl-9H-pyrido[3,4-b]indol-9-yl)acetate]
remaining activity at 1 µM [1, 4]: 30%
remaining activity at 1 µM [2, 4]: 45%
remaining activity at 1 µM [3, 4]: 101%

CCCCn1c2cc(OC)c(Cl)cc2c2ccnc(C)c21 [AnnH14, 9-Butyl-6-chloro-7-methoxy-1-methyl-9H-pyrido[3,4-b]indole]
remaining activity at 1 µM [1, 4]: 94%
remaining activity at 1 µM [2, 4]: 62%
remaining activity at 1 µM [3, 4]: 56%

COc1ccc2c3ccnc(C)c3n(CCN(C)C)c2c1 [AnnH16, [2-(7-Methoxy-1-methyl-9H-pyrido[3,4-b]indol-9-yl)-ethyl]-dimethylamine]
remaining activity at 1 µM [1, 4]: 107%
remaining activity at 1 µM [3, 4]: 103%

COc1ccc2c(c1)[nH]c1c(/C=C/c3ccccc3)nccc12 [AnnH18]
remaining activity at 1 µM [1, 4]: 27%
remaining activity at 1 µM [2, 4]: 58%
remaining activity at 1 µM [3, 4]: 100%

COc1ccc2c3c([nH]c2c1)C(=O)NCC3 [AnnH19, 7-methoxy-2,3,4,9-tetrahydro-1H-pyrido[3,4-b]indol-1-one]
remaining activity at 1 µM [1, 4]: 122%
remaining activity at 1 µM [2, 4]: > 90%

COc1ccc2c(c1)[nH]c1c(=O)[nH]ccc12 [AnnH20, 7-Methoxy-2,9-dihydro-1H-pyrido[3,4-b]indol-1-one]
remaining activity at 1 µM [3]: 127%

COc1ccc2c3ccnc(C)c3n(C/C=C/c3ccccc3)c2c1 [AnnH22, 7-Methoxy-1-methyl-9-((E)-3-phenylallyl)-9H-pyrido[3,4-b]indole]
remaining activity at 1 µM [1, 4]: 3%
remaining activity at 1 µM [2, 4]: 15%
remaining activity at 1 µM [3, 4]: 39%

COc1ccc2c(c1)[nH]c1c(Cl)nccc12 [AnnH24, 1-chloro-7-methoxy-9H-pyrido[3,4-b]indole]
remaining activity at 1 µM [2, 4]: 17%
remaining activity at 1 µM [3]: 103%

COc1ccc2c3ccnc(C)c3n(CC(=O)O)c2c1 [AnnH25, 2-(7-Methoxy-1-methyl-9H-pyrido[3,4-b]indol-9-yl)acetic acid]
remaining activity at 1 µM [2, 4]: 34%
remaining activity at 1 µM [3, 4]: 6%

COc1ccc2c3ccnc(C)c3n(CC(=O)OC(C)C)c2c1 [AnnH27, Isopropyl 2-(7-methoxy-1-methyl-9H-pyrido[3,4-b]indol-9-yl)acetate]
remaining activity at 1 µM [1, 4]: 4%
remaining activity at 1 µM [2, 4]: 79%
remaining activity at 1 µM [3, 4]: 72%

COc1ccc2c3ccnc(C)c3n(CC(N)=O)c2c1 [AnnH28, 2-(7-Methoxy-1-methyl-9H-pyrido[3,4-b]indol-9-yl)-N-acetamide]
remaining activity at 1 µM [2, 4]: 89%
remaining activity at 1 µM [3, 4]: 131%

CNC(=O)Cn1c2cc(OC)ccc2c2ccnc(C)c21 [AnnH30, 2-(7-Methoxy-1-methyl-9H-pyrido[3,4-b]indol-9-yl)-N-methylacetamide]
remaining activity at 1 µM [1, 4]: 64%
remaining activity at 1 µM [2, 4]: 87%
remaining activity at 1 µM [3, 4]: 24%

CCOC(=O)CCn1c2cc(OC)ccc2c2ccnc(C)c21 [AnnH32, Ethyl 3-(7-Methoxy-1-methyl-9H-pyrido[3,4-b]indol-9-yl)propanoate]
remaining activity at 1 µM [1]: 12%
remaining activity at 1 µM [2]: 44%
remaining activity at 1 µM [3]: 105%

COc1ccc2c3ccnc(C)c3n(CC(=O)N(C)C)c2c1 [AnnH34, 2-(7-Methoxy-1-methyl-9H-pyrido[3,4-b]indol-9-yl)-N,N-dimethylacetamide]
remaining activity at 1 µM [1, 4]: 75%
remaining activity at 1 µM [2, 4]: 78%
remaining activity at 1 µM [3, 4]: 130%

COc1ccc(Cn2c3cc(OC)ccc3c3ccnc(C)c32)cc1 [AnnH35, 7-Methoxy-9-(4-methoxybenzyl)-1-methyl-9H-pyrido[3,4-b]indole]
remaining activity at 1 µM [1, 4]: 100%
remaining activity at 1 µM [2, 4]: 80%
remaining activity at 1 µM [3, 4]: 128%

COc1ccc2c3ccnc(C)c3n(Cc3ccncc3)c2c1 [AnnH36, 7-Methoxy-1-methyl-9-(pyridin-4-yl-methyl)-9H-pyrido[3,4-b]indole]
remaining activity at 1 µM [1, 4]: 59%
remaining activity at 1 µM [2, 4]: 62%
remaining activity at 1 µM [3, 4]: 19%

COc1ccc2c3ccnc(C)c3n(CCCc3ccccc3)c2c1 [AnnH38, 7-Methoxy-1-methyl-9-(3-phenylpropyl)-9H-pyrido[3,4-b]indole]
remaining activity at 1 µM [1, 4]: 12%
remaining activity at 1 µM [2, 4]: 31%
remaining activity at 1 µM [3, 4]: 127%

COc1ccc2c3ccnc(C)c3n(Cc3ccc4ccccc4c3)c2c1 [AnnH39, 7-Methoxy-1-methyl-9-(2-naphthylmethyl)-9H-pyrido[3,4-b]indole]
remaining activity at 1 µM [1, 4]: 91%
remaining activity at 1 µM [2, 4]: 84%
remaining activity at 1 µM [3, 4]: 125%

Cc1nccc2c1[nH]c1ccccc12 [harmane, reference compound]
remaining activity at 1 µM [1]: 97%
remaining activity at 1 µM [3]: 18%

From PMC7765920 (Molecules, 2020)
